Measurements reported in PMC10095824, “Design and Synthesis of 3-(β-D-Glucopyranosyl)-4-amino/4-guanidino Pyrazole Derivatives and Analysis of Their Glycogen Phosphorylase Inhibitory Potential” (Molecules, 2023).
Like-named read-outs stand apart in the source and are kept apart here. One block for each compound: values may come before it.

Experiments:
[1] = target: T1, rabbit muscle glycogen phosphorylase b (rmGPb) (Oryctolagus cuniculus, UniProt P00489); design: method as in PMID 26713107; details: cited from earlier work
T1 sequence (P00489 1-843): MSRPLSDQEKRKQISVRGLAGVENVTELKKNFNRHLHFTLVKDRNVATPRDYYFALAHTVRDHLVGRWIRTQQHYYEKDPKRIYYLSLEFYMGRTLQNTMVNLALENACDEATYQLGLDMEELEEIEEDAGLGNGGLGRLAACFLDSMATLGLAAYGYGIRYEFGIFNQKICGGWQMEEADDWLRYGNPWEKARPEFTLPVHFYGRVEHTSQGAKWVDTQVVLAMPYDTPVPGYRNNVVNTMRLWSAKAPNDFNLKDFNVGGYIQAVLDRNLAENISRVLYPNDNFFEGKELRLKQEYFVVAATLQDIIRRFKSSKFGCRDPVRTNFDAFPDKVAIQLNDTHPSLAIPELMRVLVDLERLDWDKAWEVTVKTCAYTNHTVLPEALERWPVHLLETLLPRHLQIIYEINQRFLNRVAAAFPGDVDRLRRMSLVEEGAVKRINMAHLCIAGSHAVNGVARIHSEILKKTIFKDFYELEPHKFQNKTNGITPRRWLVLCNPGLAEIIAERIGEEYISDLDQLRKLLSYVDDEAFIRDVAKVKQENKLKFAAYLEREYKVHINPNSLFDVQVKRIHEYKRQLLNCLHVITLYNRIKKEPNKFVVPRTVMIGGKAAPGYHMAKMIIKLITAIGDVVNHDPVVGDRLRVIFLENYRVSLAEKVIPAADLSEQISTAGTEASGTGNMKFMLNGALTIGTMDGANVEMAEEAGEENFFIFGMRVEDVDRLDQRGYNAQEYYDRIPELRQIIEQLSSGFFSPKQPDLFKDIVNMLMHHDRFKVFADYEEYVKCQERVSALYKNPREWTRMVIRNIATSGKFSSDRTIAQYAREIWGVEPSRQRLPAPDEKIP

[2] = target: T1, rabbit muscle glycogen phosphorylase b (rmGPb); assay: Glycogen phosphorylase binding assay (enzyme kinetics in the direction of glycogen synthesis); assay type: biochemical
Procedure: The determined IC50 values are shown in Table 1, together with the previously determined Ki value for benchmark compound 1. […] Towards understanding the observed potencies, extensive computations on the bound and unbound states of the ligands were performed.
Enzyme activity was assayed into the direction of glycogen synthesis as previously presented. Kinetic data were collected using the muscle phosphorylase b (dephosphorylated, GPb) isoform. Kinetic data for the inhibition of GPb by the compounds were obtained in the presence of 10 μg/mL enzyme, varying concentrations of α-D-glucose-1-phosphate (4–40 mM), constant concentration (1%) of glycogen and AMP (1 mM). Enzymatic activities were presented in the form of a double-reciprocal plot (Lineweaver-Burk). The plots were analysed by a non-linear data analysis program. The inhibitor constants (Ki) were determined by secondary plots, replotting the slopes from the Lineweaver-Burk plot against the inhibitor concentrations. The means of standard errors for all calculated kinetic parameters averaged to less than 10% [48, 49].

SMILES: OC[C@H]1O[C@@H](c2cc(-c3ccccc3)n[nH]2)[C@H](O)[C@@H](O)[C@@H]1O [Compound 2]
IC50 [1]: 850 µM

IC50 ([2]; rmGPb): 565 µM
SMILES: Nc1c([C@@H]2O[C@H](CO)[C@@H](O)[C@H](O)[C@H]2O)n[nH]c1-c1ccccc1 [Compound 3, 4-Amino-3-(β-D -glucopyranosyl)-5-phenyl-1H-pyrazole]

inhibition of rmGPb ([2]; at 625 µM concentration, 625 µM): no inhibition at 625 µM
SMILES: N=C(N)Nc1c([C@@H]2O[C@H](CO)[C@@H](O)[C@H](O)[C@H]2O)n[nH]c1-c1ccccc1 [Compound 4, 3-(β-D -Glucopyranosyl)-4-guanidino-5-phenyl-1H-pyrazole]
